These results are taken from US9018260B2, “Indanesulfamide derivatives” (Eisai R&D Management Co., Ltd., priority 2012, dated 2015).

Data set [1] can be described thus: Rota rod test. The class given is in vivo, mouse. To be noted: male, ddY, mouse, in vivo, po; dose at which fall off latency shorten by 50% of vehicle control value. Here is the method: (§1) Rotarod apparatus (Rota-rod MK-660C, Muromachi-Kikai Co., Ltd.) was used for measurement. The motor was turned on and the rod rotation was continuously accelerated to a rate of 40 rpm over 180 sec.
(§2) Male ddY mice at an age of 5 weeks (Japan SLC) were used. On the experiment day, the mice were pretrained and only the animals able to remain on the rod for at least 60 s were selected for experiment.
(§3) Test compounds were dissolved in the vehicle (0.45% methyl cellulose/4.5% cremophor/10% dimethyl sulfoxide), then orally (p.o.) administered to mice. The vehicle was orally administered as controls. The effects of compounds were studied in groups of six to ten animals.
(§4) Latency for mice to fall off from the rod was measured. The toxic dose at which fall off latency shorten by 50% of vehicle control value (TD50) was calculated.
(§5) Therapeutic index were calculated by dividing the respective TD50 value in rota rod test by the ED50 value determined in the corneal kindling model.

Data set [2] concerns male ddY mice. In words: Rota rod test. The format is in vivo, mouse. The settings on record: route p.o.; TD50 in rota rod test divided by ED50 in corneal kindling model. Here is the method:
as §1, §2, §3, §4, §5
Background: The rotarod test checks motor coordination on a turning rod.

The subject of data set [3] is amygdala kindled male Wistar Kyoto rats. As to the kind of experiment: Rat amygdala kindling model. The class given is in vivo. The settings on record: oral, 60 minutes after administration; FIGS. 1 to 3. Here is the method: Male Wistar Kyoto rats (Charles River Japan) were used for the experiment. For implantation of kindling electrodes, rats were anesthetized with pentobarbital (65 mg/kg i.p.) and a tripolar electrode was implanted into the right hemisphere aimed at the basolateral amygdala using the coordinates derived from the atlas of Paxinos and Watson. Electrical stimulation of the amygdala was initiated following a recovery period of one week after surgery. […]
The threshold for induction of amygdala after discharges (ADT), i.e., epileptiform spikes on electroencephalogram (EEG), was measured for anti-seizure potency of compounds. In fully kindled rats, the ADT was determined by administering a series of stimulations beginning at […] and increasing in steps of about 25% of the previous current. […]
In the afternoon, test compounds were dissolved in the vehicle (a 1:1:1 mixture of polyethylene glycol 200, distilled water and DMSO), then orally administered to rats. […] The ADT was determined again 60 minutes after administration of drugs. The % of pre-value (morning results) was determined for each rat. Results were expressed as mean±SEM and analyzed by Dunnett's multiple comparisons test. […]

In data set [4] the test system is corneal kindled male C57Bl/6 mice. As to the kind of experiment: Mouse corneal kindling model. The format is in vivo. To be noted: for ED50: Mus musculus, dosage where 50% of animals showed seizure severity score 2 or less; for Seizure severity score (Average): Racine's scale. The source says: Male C57Bl/6 mice were stimulated twice daily for 10 days. The electric-stimulations with current intensities of 4.0 mA and duration of 3 s (pulse frequency 50 Hz) were applied via corneally placed saline-soaked copper electrodes.
Seizure severity was ranked according to a modified scoring system of the Racine's scale (Clin. Neurophysiol. 1972:32:281-294): Score 1, mild facial clonus and eye blinking; 2, severe facial clonus, head nodding, chewing; 3, unilateral or alternating forelimb clonus; 4, bilateral forelimb clonus with rearing; 5, bilateral forelimb clonus with rearing and falling; 6, tonic fore- and/or hindlimb extension. The fully kindled animals with the severity score 4 or more were used for evaluation.
Test compounds were dissolved in the vehicle (0.45% methyl cellulose/4.5% cremophor/10% DMSO), then orally (p.o.) or intraperitoneally (i.p.) administered to mice. The vehicle was orally administered as controls.
Electric stimulation was applied at 1 hour after p.o. or 20 minutes after i.p administration. Stimulation parameters were the same as during the kindling process. After electric stimulation, seizure severity was recorded for 30 seconds according to the Racine's scale.
Four to ten animals were used for calculation of average seizure severity score at each dose.

Data set [5] is described as follows: Rota rod test. The class given is in vivo, mouse. The settings on record: male, ddY, mouse, in vivo, intraperitoneal; route i.p; dose at which fall off latency shorten by 50% of vehicle control value.
The subject of data set [6] is male ddY mice. In words: Rota rod test. The settings on record: route i.p; TD50 in rota rod test divided by ED50 in corneal kindling model. The class given is in vivo, mouse.
Where [7] appears, read: dose 10 mg/kg, p.o., stimulation 1 hour after administration.
The mark [8] stands for this setting: dose 25 mg/kg, p.o., stimulation 1 hour after administration.
Where [9] appears, read: dose 50 mg/kg, p.o., stimulation 1 hour after administration.
Setting [10] is: dose 10 mg/kg, i.p., stimulation 20 minutes after administration.
Where [11] appears, read: dose 25 mg/kg, i.p., stimulation 20 minutes after administration.

Molecules are shown by their SMILES.

Turning to `NS(=O)(=O)NC1c2c(Cl)cc(F)cc2CC1(F)F` (single isomer, unassigned; (-)) [Example 6, (−)-N-(7-chloro-2,2,5-trifluoro-2,3-dihydro-1H-inden-1-yl)sulfamide], in data set [1], the TD50 (as a rule, the 50% point of the dose-response relation for the toxic effect studied) came out at 307 mg/kg. Moreover, the Therapeutic index in data set [2] is recorded as 30.1. The “after-discharge threshold (ADT), % of pre-value” in data set [3] is “dose-dependent elevation of after-discharge threshold”. The 50% effective dose (ED50) (as a rule, the dose at which the effect has come halfway, by size or by number of responders) in data set [4] (po) stood at 10.2 mg/kg. Moreover, the entries for the “Seizure severity score (Average)” value in data set [4] (setting [7]), in data set [4] (setting [8]) and in data set [4] (setting [9]) were 1, 0 and 0.25, respectively.

On to `NS(=O)(=O)NC1CCc2c(F)cc(F)c(F)c21` (single isomer, unassigned; (-)) [Example 29, (−)-N-(4,6,7-trifluoro-2,3-dihydro-1H-inden-1-yl)sulfamide], for which the TD50 in data set [1] stood at 157 mg/kg. For the same molecule, the Therapeutic index in data set [2] is on record as 9.93. In addition, the 50% effect level in data set [4] (po) (ED50) was put at a dose of 15.8 mg/kg. For the same molecule, the “Seizure severity score (Average)” value stood at 3.5 in data set [4] (setting [7]), 0.83 in data set [4] (setting [8]) and 0 in data set [4] (setting [9]).

`NS(=O)(=O)N[C@H]1CCc2c(F)ccc(F)c21` [Example 19, N-[(1S)-4,7-difluoro-2,3-dihydro-1H-inden-1-yl]sulfamide]: the TD50 in data set [1] turned out to be 235 mg/kg. This molecule also came in with a Therapeutic index in data set [2] of 19.0. In data set [4] (po), this molecule showed an ED50 of 12.4 mg/kg. Besides, the “Seizure severity score (Average)” value in data set [4] (setting [7]) is 2; in data set [4] (setting [8]), 0.

The molecule `NS(=O)(=O)N[C@H]1c2c(F)cc(F)cc2CC1(F)F` [Example 1, N-[(1S)-2,2,5,7-tetrafluoro-2,3-dihydro-1H-inden-1-yl]sulfamide] showed a TD50 in data set [1] of 390 mg/kg. In data set [2], this molecule showed a Therapeutic index of 49.4. In data set [4] (po), this molecule gave an ED50 of 7.9 mg/kg. Also, the “Seizure severity score (Average)” value in data set [4] (setting [7]) was found to be 2; in data set [4] (setting [8]), 0; in data set [4] (setting [9]) it was 0.

For the molecule `NS(=O)(=O)N[C@H]1CCc2cc(F)cc(Cl)c21` [Example 21, N-[(1S)-7-chloro-5-fluoro-2,3-dihydro-1H-inden-1-yl]sulfamide], the TD50 in data set [1] was 234 mg/kg. Besides, the Therapeutic index in data set [2] is on record as 22.1. In data set [4] (po), this molecule had an ED50 of 10.6 mg/kg. The “Seizure severity score (Average)” value in data set [4] (setting [10]) worked out at 4.25; in data set [4] (setting [11]) it was 2.

On to `Cc1cc(F)cc2c1[C@H](NS(N)(=O)=O)C(F)(F)C2` [Example 12, N-[(1S)-2,2,5-Trifluoro-7-methyl-2,3-dihydro-1H-inden-1-yl]sulfamide], for which the TD50 in data set [1] worked out at 143 mg/kg. Also, in data set [2], the Therapeutic index is 25.5. This molecule also yielded an ED50 in data set [4] (po) of 5.6 mg/kg. Also, the “Seizure severity score (Average)” value in data set [4] (setting [7]) and in data set [4] (setting [8]) was 0 each time.

As for `NS(=O)(=O)NC1CCc2ccccc21` (centres unmarked) [Reference compound, reference compound], the TD50 in data set [1] was 211 mg/kg. In addition, the Therapeutic index in data set [2] is 5.27. The molecule further registered an ED50 in data set [4] (po) of 40 mg/kg. The “Seizure severity score (Average)” value in data set [4] (setting [7]) was determined as 4.67; in data set [4] (setting [8]), 3.17; in data set [4] (setting [9]) it was 1.33.

`Cc1cccc2c1[C@H](NS(N)(=O)=O)C(F)(F)C2` [Example 11, N-[(1S)-2,2-Difluoro-7-methyl-2,3-dihydro-1H-inden-1-yl]sulfamide] returned a TD50 in data set [1] of 132 mg/kg. In data set [2], this molecule came in with a Therapeutic index of 26.4. In addition, the “after-discharge threshold (ADT), % of pre-value” in data set [3] is on record as “dose-dependent elevation of after-discharge threshold”. It took a dose of 5 mg/kg to reach the 50% effect level in data set [4] (po) (ED50). In addition, the figures for the “Seizure severity score (Average)” value in data set [4] (setting [7]) and in data set [4] (setting [8]) were 0.5 and 0, respectively.

On to `NS(=O)(=O)NC1c2c(ccc(F)c2F)CC1(F)F` (single isomer, unassigned; (-)) [Example 5, (−)-N-(2,2,6,7-tetrafluoro-2,3-dihydro-1H-inden-1-yl)sulfamide], for which the TD50 in data set [1] is 404 mg/kg. In addition, in data set [2], the Therapeutic index stood at 70.9. The ED50 in data set [4] (po) turned out to be 5.7 mg/kg. The “Seizure severity score (Average)” value in data set [4] (setting [7]) was 2; in data set [4] (setting [8]), 0.

As to `NS(=O)(=O)NC1c2c(Cl)cccc2CC1(F)F` (single isomer, unassigned; (-)) [Example 8, (−)-N-(7-chloro-2,2-difluoro-2,3-dihydro-1H-inden-1-yl)sulfamide], the TD50 in data set [5] came to 119 mg/kg. This molecule also yielded a Therapeutic index in data set [6] of 11.2. This molecule gave an ED50 in data set [4] (ip, route i.p) of 10.6 mg/kg. The “Seizure severity score (Average)” value was determined as 3 in data set [4] (setting [10]) and 0 in data set [4] (setting [11]).
